{
  "source": "patent US5420156A",
  "about": "“Pharmacologically active compound and use” (Burroughs Wellcome Co., priority 1989, dated 1995)",
  "key": {"monoamine oxidase (MAO)": {"tested_on": "monoamine oxidase (MAO)", "conditions": "background; cited from earlier work"}, "MAO-A [1]": {"tested_on": "MAO-A", "assay": "In vitro inhibition of MAO-A in mitochondrial extracts of rat or human brain (double-label assay)", "type": "biochemical", "protocol": "(§1) MAO was assayed with [^3 H]serotonin (0.2 mM, 5G/mole) and [^14 C]β-phenethylamine (10 μM, 3 G/mole) as substrate in a double-label assay (White and Glassman, J. Neurochem, 29:987-97 (1977)). Under these conditions, serotonin is selectively metabolised by MAO-A and β-phenethylamine by MAO-B."}, "MAO-A [2]": {"tested_on": "MAO-A", "assay": "Kinetic mechanism of MAO-A inhibition in vitro (substrate serotonin or tyramine varied)", "type": "biochemical, rat or human", "protocol": "as §1\nFor studies of the kinetic mechanism of inhibition, the above method was used except that a single substrate, serotonin or tyramine, was varied over a 10-fold concentration range that included the Km concentration. When tyramine was used as substrate, the extract was pretreated with deprenyl (1 μM) to inhibit all MAO-B activity. MAO-A activity was determined in the absence and presence of the compound under test at each substrate concentration in duplicate or triplicate assays."}, "MAO-A (brain)": {"tested_on": "MAO-A (brain)", "assay": "In vivo inhibition of brain MAO-A (ex vivo assay after oral dosing)", "parameters": "species or system male Sprague-Dawley rats", "conditions": "for Percentage inhibition of MAO-A, Brain: 3 hours after dosing; for inhibition of brain MAO-A by the time of tyramine administration: single oral dose, 3 hours later (tyramine pressor study)", "protocol": "To determine MAO inhibition in brains and livers of rats pretreated with a reversible inhibitor, it was necessary to use an assay procedure that minimized dilution of the compound. Thus, high concentrations of tissue homogenates were incubated for very short periods of time. For brain assays, initial tissue was 3-fold diluted into each assay. […] Further dilution of liver homogenates was necessary in order to obtain reliable data. Substrate concentrations were not saturating, but were chosen relative to Km values for serotonin and β-phenethylamine in order to give an estimate of MAO-A and MAO-B, respectively. Brains from pretreated male Sprague-Dawley rats ([…]) were homogenized in a buffer consisting of 0.1 M potassium phosphate and 5% sucrose (pH 7.4) at a 1:1 tissue weight/buffer volume ratio, using a motorized Teflon/glass homogenizer. MAO-A and MAO-B were determined by incubating 100 μL of tissue homogenate with 50 μL of a double-label substrate mixture to give final concentrations of [^3 H]serotonin, 0.4 mM (5C/mole) and [^14 C]β-phenethylamine, 20 μM (3C/mole). For blank assays, 100 μL portions of homogeneous were pre-incubated for 15 min. at 37° C. with pargyline (4 mM) before substrate addition. Incubations with substrate present were at 37° C. for 30 sec. Assay mixtures were then acidified and products extracted as in the above in vitro method (White and Glassman, loc. cit.)."}, "MAO-A (liver)": {"tested_on": "MAO-A (liver)", "assay": "In vivo inhibition of liver MAO-A (ex vivo assay after oral dosing)", "parameters": "species or system rats", "protocol": "To determine MAO inhibition in brains and livers of rats pretreated with a reversible inhibitor, it was necessary to use an assay procedure that minimized dilution of the compound. Thus, high concentrations of tissue homogenates were incubated for very short periods of time. For brain assays, initial tissue was 3-fold diluted into each assay. […] Further dilution of liver homogenates was necessary in order to obtain reliable data. Substrate concentrations were not saturating, but were chosen relative to Km values for serotonin and β-phenethylamine in order to give an estimate of MAO-A and MAO-B, respectively. Brains from pretreated male Sprague-Dawley rats (sacrificed 3 hours after oral dosing with the test compound) were homogenized in a buffer consisting of 0.1 M potassium phosphate and 5% sucrose (pH 7.4) at a 1:1 tissue weight/buffer volume ratio, using a motorized Teflon/glass homogenizer. MAO-A and MAO-B were determined by incubating 100 μL of tissue homogenate with 50 μL of a double-label substrate mixture to give final concentrations of [^3 H]serotonin, 0.4 mM (5C/mole) and [^14 C]β-phenethylamine, 20 μM (3C/mole). For blank assays, 100 μL portions of homogeneous were pre-incubated for 15 min. at 37° C. with pargyline (4 mM) before substrate addition. Incubations with substrate present were at 37° C. for 30 sec. Assay mixtures were then acidified and products extracted as in the above in vitro method (White and Glassman, loc. cit.).\nLiver tissue was homogenized in the above phosphate-sucrose buffer at a 1:5 tissue weight/buffer volume ratio. Portions (100 μL) of homogenate were incubated with 50 μL of the above double-label substrate mixture. Blank assays included the same volume of homogenate pre-incubated with 4 mM pargyline for 15 min. at 37° C. After addition of substrates, mixtures were incubated at 37° C. for 30 sec, acidified, and products extracted as above."}, "MAO-B (brain)": {"tested_on": "MAO-B (brain)", "assay": "In vivo inhibition of brain MAO-B (ex vivo assay after oral dosing)", "parameters": "species or system male Sprague-Dawley rats", "conditions": "5, 10, 20 mg/kg p.o.", "protocol": "(§2) To determine MAO inhibition in brains and livers of rats pretreated with a reversible inhibitor, it was necessary to use an assay procedure that minimized dilution of the compound. Thus, high concentrations of tissue homogenates were incubated for very short periods of time. For brain assays, initial tissue was 3-fold diluted into each assay. Because of the very high MAO activity. Further dilution of liver homogenates was necessary in order to obtain reliable data. Substrate concentrations were not saturating, but were chosen relative to Km values for serotonin and β-phenethylamine in order to give an estimate of MAO-A and MAO-B, respectively. Brains from pretreated male Sprague-Dawley rats (sacrificed 3 hours after oral dosing with the test compound) were homogenized in a buffer consisting of 0.1 M potassium phosphate and 5% sucrose (pH 7.4) at a 1:1 tissue weight/buffer volume ratio, using a motorized Teflon/glass homogenizer. MAO-A and MAO-B were determined by incubating 100 μL of tissue homogenate with 50 μL of a double-label substrate mixture to give final concentrations of [^3 H]serotonin, 0.4 mM (5C/mole) and [^14 C]β-phenethylamine, 20 μM (3C/mole). For blank assays, 100 μL portions of homogeneous were pre-incubated for 15 min. at 37° C. with pargyline (4 mM) before substrate addition. Incubations with substrate present were at 37° C. for 30 sec. […]"}, "MAO-B (liver)": {"tested_on": "MAO-B (liver)", "assay": "In vivo inhibition of liver MAO-B (ex vivo assay after oral dosing)", "parameters": "species or system rats", "conditions": "5, 10, 20 mg/kg p.o.", "protocol": "as §2"}, "[3]": {"assay": "Acute oral toxicity, mice", "type": "in vivo", "conditions": "up to 1000 mg/kg., p.o."}, "[4]": {"assay": "Acute oral toxicity, rats", "type": "in vivo", "conditions": "up to 1000 mg/kg., p.o."}, "MAO-A [5]": {"tested_on": "MAO-A", "assay": "Reversibility of binding to MAO-A by dialysis"}, "[6]": {"tested_on": "elevation of blood pressure by orally ingested tyramine", "assay": "Response to orally ingested tyramine (elevation of blood pressure) in test mammals", "type": "in vivo", "conditions": "oral antidepressant doses prior to orally ingested tyramine"}},
  "note": "pIC50, pKi: −log10 of the molar value.",
  "data": [
    {"smiles": "N[C@@H]1C[C@H]1c1ccccc1", "note": "(relative stereo) [tranylcypromine]", "values": [
      {"measurement": "type of MAO inhibition", "setting": "monoamine oxidase (MAO)", "value": "non-selective, irreversible inhibitors"}
    ]},
    {"smiles": "CCc1cccc2c1S(=O)(=O)c1ccccc1O2", "note": "[Compound I, 1-Ethylphenoxathiin 10,10-dioxide]", "values": [
      {"measurement": "inhibition of MAO-A (in words)", "setting": "MAO-A [1]", "value": "potent selective inhibition of MAO-A"},
      {"measurement": "pIC50", "setting": "MAO-A [1]; read-out: I50 (concentration producing 50% inhibition)", "value": 7.46},
      {"measurement": "type of inhibition vs. the substrate serotonin or tyramine", "setting": "MAO-A [2]; substrate serotonin or tyramine", "value": "competitive"},
      {"measurement": "pKi", "setting": "MAO-A [2]; vs. substrate serotonin", "value": 8.00},
      {"measurement": "pKi", "setting": "MAO-A [2]; vs. substrate tyramine, extract pretreated with deprenyl (1 μM)", "value": 8.00},
      {"measurement": "Percentage inhibition of MAO-A, Brain", "setting": "MAO-A (brain); 5 mg/kg p.o.", "value": "18.5 ± 8.1", "unit": "%"},
      {"measurement": "Percentage inhibition of MAO-A, Brain", "setting": "MAO-A (brain); 10 mg/kg p.o.", "value": "65.2 ± 6.6", "unit": "%"},
      {"measurement": "Percentage inhibition of MAO-A, Brain", "setting": "MAO-A (brain); 20 mg/kg p.o.", "value": "82.4 ± 2.6", "unit": "%"},
      {"measurement": "time of peak inhibition of brain MAO-A", "setting": "MAO-A (brain); oral dose of 20 mg/kg", "value": "1 to 6", "unit": "h"},
      {"measurement": "inhibition of brain MAO-A at 24 hours after dosing", "setting": "MAO-A (brain); oral dose of 20 mg/kg, 24 hours", "value": "negligible"},
      {"measurement": "inhibition of brain MAO-A by the time of tyramine administration", "setting": "MAO-A (brain)", "value": "approximately 80%"},
      {"measurement": "Percentage inhibition of MAO-A, Liver", "setting": "MAO-A (liver); 5 mg/kg p.o.", "value": "32.8 ± 6.4", "unit": "%"},
      {"measurement": "Percentage inhibition of MAO-A, Liver", "setting": "MAO-A (liver); 10 mg/kg p.o.", "value": "61.8 ± 4.4", "unit": "%"},
      {"measurement": "Percentage inhibition of MAO-A, Liver", "setting": "MAO-A (liver); 20 mg/kg p.o.", "value": "78.9 ± 1.6", "unit": "%"},
      {"measurement": "inhibition of MAO-B, brain", "setting": "MAO-B (brain)", "value": "no significant inhibition"},
      {"measurement": "inhibition of MAO-B, liver", "setting": "MAO-B (liver)", "value": "no significant inhibition"},
      {"measurement": "visible effects after acute doses", "setting": "[3]", "value": "No visible effects"},
      {"measurement": "visible effects after acute doses", "setting": "[4]", "value": "No visible effects"},
      {"measurement": "binding to MAO-A, removal from its complex by dialysis", "setting": "MAO-A [5]", "value": "reversibly bound to MAO-A"},
      {"measurement": "increase in response (elevation of blood pressure) to orally ingested tyramine", "setting": "[6]", "value": "No pharmacologically significant increase in response"}
    ]},
    {"smiles": "Cc1cc(C(=O)NNCc2ccccc2)no1", "note": "[isocarboxazid]", "values": [
      {"measurement": "type of MAO inhibition", "setting": "monoamine oxidase (MAO)", "value": "non-selective, irreversible inhibitors"}
    ]},
    {"smiles": "NNCCc1ccccc1", "note": "[pheneizine, reference compound]", "values": [
      {"measurement": "inhibition of brain MAO-A by the time of tyramine administration", "setting": "MAO-A (brain)", "value": "approximately 80%"},
      {"measurement": "inhibition of liver MAO-A in tyramine pressor study", "setting": "MAO-A (liver); single oral dose producing approximately 80% inhibition of brain MAO-A", "value": "≥ 90", "unit": "%"},
      {"measurement": "type of MAO inhibition", "setting": "monoamine oxidase (MAO)", "value": "non-selective, irreversible inhibitors"}
    ]}
  ]
}
